Patent US20120035161A1, “Novel Compositions and Methods of Treating Diseases Using the Same” (CORRIDOR PHARMACEUTICALS, INC., priority 2006, published 2012)
“And” between values parts separate entries of the source, which are not always exact repeats. Identical values can stand only once.

Assays:
[1] = Phospholipidosis assay (LipidTox); assay type: cell-based; conditions: human
Method: (§1) More recently, fluorescent dyes have been utilized to assess phospholipidosis in a high throughput manner (Nioi et al., 2007, Toxicol. Sci. 99:162-173). In this assay, HepG2 cells are plated in MEM growth medium and allowed to incubate overnight. Cells are treated with test compounds that have been added to the assay medium (10% fetal bovine serum) containing LipidTox (fluorescent lipophilic dye). After 48 h incubation, cells are fixed and stained with Hoechst. Plates are scanned with an automated fluorescent microscope (Thermo Fisher Cellomics ArrayScan 4.5) and image analysis is used to quantitate cell number and phospholipid accumulation. Compounds are tested in triplicate at multiple concentrations. Three reference compounds, sertraline, perhexyline, and meclizine (high, medium, and low inducers of phospholipidosis, respectively) are included in each assay. The data is expressed as fold induction over background and the % of the positive control (sertraline), which is calculated using the following equation:
(§2) % positive control=100×(RFUcompound−RFUbackground)/(RFUsertaline−RFUbackground),
(§3) where RFU=Relative Fluorescence Unit

HepG2 cells = experiment: Phospholipidosis assay (LipidTox); assay type: cell-based; conditions: human, 48 h
Method: as §1, §2, §3

[2] = test system: cryopreserved mixed gender human hepatocytes; experiment: Hepatocyte stability assay; assay type: in vitro ADME; conditions: 5 μM test compound
Method: Test compounds (5 μM) were incubated with cryopreserved mixed gender human hepatocytes pooled from at least 3 donors. Cell viability of hepatocytes was assessed by a Trypan Blue assay prior to the initiation of the stability assay. The final hepatocyte cell density was 1.5×10^6 viable cells/mL, Samples were taken at 2 time points: 0 and 60 minutes. As positive controls, testosterone (20 μM) and 7-hydroxy-coumarin (100 μM) were incubated and sampled at 5 time points: 0, 15, 30, 60, and 120 minutes. Aliquots were removed and combined (50/50) with acetonitrile to terminate the reaction. Samples were mixed for 10 minutes and centrifuged. The supernatants were transferred to vial for analysis by HRMS. In this assay, both test compound and a des-glycine metabolite (M1) are quantified based on peak area response ratios.
The enzymatic activities of the human cryopreserved hepatocytes used in this study were verified in parallel by determining the disappearance of testosterone (expressed as half-life) and the formation of 7-hydroxycoumarin glucuronide and 7-hydroxycoumarin sulfate (expressed as a formation rate).

## NCC(=O)NCCN1CCN(CCCN2c3ccccc3Sc3ccc(C(F)(F)F)cc32)CC1 [ICI-735]
[1]
  cytotoxicity at 48 h, 1 µM: 0%
  cytotoxicity at 48 h, 3 µM: 68%
  cytotoxicity at 48 h, 10 µM: 100%
  cytotoxicity at 48 h, 30 µM: 100%
  fold induction at 48 h, 1 µM: 23
  fold induction at 48 h, 3 µM: 6
HepG2 cells; 1 μM
  % Positive Control: 43%
HepG2 cells; 3 μM
  % Positive Control: 10%
[2]; T = 0 minutes
  Relative Level (%): 99.5% and 100.5%
[2]; T = 60 minutes
  Peak Areas: 8.39E+06 and 8.79E+06
  Relative Level (%): 89.6% and 92.4%
